System: 349418-098-R-PDC complex spheroid growth
Assay: Anticancer human tumor 349418-098-R-PDC patient-derived lung adenocarcinoma cell line growth inhibition [AhR]
Conditions: for IC50: curve of first compound; for viability, T/C: stronger effect = lower value; active means viability on the fitted dose curve at most 10% of control; inactive means the rest
Procedure, shortened: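 Spheroids combined tumor cells with HUVEC endothelial cells and human MSCs as stroma. AhR antagonists were paired with standard or investigational drugs, each dosed in half-log steps down from near clinical Cmax, or from 10 microM where Cmax was unknown.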

[1] = second compound 0.1 µM, first compound 0.00949 µM
[2] = second compound 0.1 µM, first compound 0.03 µM
[3] = second compound 0.1 µM, first compound 0.0949 µM
[4] = second compound 0.1 µM, first compound 0.3 µM
[5] = second compound 0.316 µM, first compound 0.00949 µM
[6] = second compound 0.316 µM, first compound 0.03 µM
[7] = second compound 0.316 µM, first compound 0.0949 µM
[8] = second compound 0.316 µM, first compound 0.3 µM
[9] = second compound 1 µM, first compound 0.00949 µM
[10] = second compound 1 µM, first compound 0.03 µM
[11] = second compound 1 µM, first compound 0.0949 µM
[12] = second compound 1 µM, first compound 0.3 µM
[13] = second compound 3.16 µM, first compound 0.00949 µM
[14] = second compound 3.16 µM, first compound 0.03 µM
[15] = second compound 3.16 µM, first compound 0.0949 µM
[16] = second compound 3.16 µM, first compound 0.3 µM
[17] = second compound 10 µM, first compound 0.00949 µM
[18] = second compound 10 µM, first compound 0.03 µM
[19] = second compound 10 µM, first compound 0.0949 µM
[20] = second compound 10 µM, first compound 0.3 µM
[21] = second compound 0.1 µM, first compound 0.0316 µM
[22] = second compound 0.1 µM, first compound 0.1 µM
[23] = second compound 0.316 µM, first compound 0.0316 µM
[24] = second compound 0.316 µM, first compound 0.1 µM
[25] = second compound 1 µM, first compound 0.0316 µM
[26] = second compound 1 µM, first compound 0.1 µM
[27] = second compound 3.16 µM, first compound 0.0316 µM
[28] = second compound 3.16 µM, first compound 0.1 µM
[29] = second compound 10 µM, first compound 0.0316 µM
[30] = second compound 10 µM, first compound 0.1 µM
[31] = second compound 0.1 µM, first compound 0.000949 µM
[32] = second compound 0.1 µM, first compound 0.003 µM
[33] = second compound 0.316 µM, first compound 0.000949 µM
[34] = second compound 0.316 µM, first compound 0.003 µM
[35] = second compound 1 µM, first compound 0.000949 µM
[36] = second compound 1 µM, first compound 0.003 µM
[37] = second compound 3.16 µM, first compound 0.000949 µM
[38] = second compound 3.16 µM, first compound 0.003 µM
[39] = second compound 10 µM, first compound 0.000949 µM
[40] = second compound 10 µM, first compound 0.003 µM
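Further: spheroids exposed to agents for seven days before luminescence viability read.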
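Wherever viability, T/C is given: spheroids also contain HUVEC endothelial cells and human MSC stroma.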

CCN(c1cc(-c2ccc(CN3CCOCC3)cc2)cc(C(=O)NCc2c(C)cc(C)[nH]c2=O)c1C)C1CCOCC1 + CC(CO)NC(=O)c1cc(-c2ccc(Cl)cc2)nn(-c2cnn(C)c2)c1=O
> 3000 nM: IC50 (second compound 0.1 µM) | IC50 (second compound 0.316 µM) | IC50 (second compound 1 µM) | IC50 (second compound 3.16 µM)
273 nM: IC50 (second compound 10 µM)
inactive: viability, T/C [1] 110% | viability, T/C [2] 110% | viability, T/C [3] 86.7% | viability, T/C [4] 79.4% | viability, T/C (second compound 0.1 µM, first compound 0.949 µM) 87.1% | viability, T/C (second compound 0.1 µM, first compound 3 µM) 74.7% | viability, T/C [5] 95% | viability, T/C [6] 118% | viability, T/C [7] 107% | viability, T/C [8] 89.2% | viability, T/C (second compound 0.316 µM, first compound 0.949 µM) 96% | viability, T/C (second compound 0.316 µM, first compound 3 µM) 76.1% | viability, T/C [9] 114% | viability, T/C [10] 123% | viability, T/C [11] 107% | viability, T/C [12] 76.2% | viability, T/C (second compound 1 µM, first compound 0.949 µM) 95.1% | viability, T/C (second compound 1 µM, first compound 3 µM) 59.7% | viability, T/C [13] 77.5% | viability, T/C [14] 63.4% | viability, T/C [15] 72.4% | viability, T/C [16] 67.9% | viability, T/C (second compound 3.16 µM, first compound 0.949 µM) 41.9% | viability, T/C (second compound 3.16 µM, first compound 3 µM) 70.4% | viability, T/C [17] 54.2% | viability, T/C [18] 79% | viability, T/C [19] 85.6% | viability, T/C [20] 40.5% | viability, T/C (second compound 10 µM, first compound 0.949 µM) 55.5% | viability, T/C (second compound 10 µM, first compound 3 µM) 47.9%

CC[C@@]1(O)C(=O)OCc2c1cc1n(c2=O)Cc2cc3c(CN(C)C)c(O)ccc3nc2-1 + CC(CO)NC(=O)c1cc(-c2ccc(Cl)cc2)nn(-c2cnn(C)c2)c1=O
12.2 nM: IC50 (second compound 3.16 µM)
10.6 nM: IC50 (second compound 1 µM)
inactive: viability, T/C (second compound 0.1 µM, first compound 0.000316 µM) 90% | viability, T/C (second compound 0.1 µM, first compound 0.001 µM) 115% | viability, T/C (second compound 0.1 µM, first compound 0.00316 µM) 97.5% | viability, T/C (second compound 0.1 µM, first compound 0.01 µM) 75.7% | viability, T/C [21] 43.9% | viability, T/C [22] 16.2% | viability, T/C (second compound 0.316 µM, first compound 0.000316 µM) 136% | viability, T/C (second compound 0.316 µM, first compound 0.001 µM) 118% | viability, T/C (second compound 0.316 µM, first compound 0.00316 µM) 87.8% | viability, T/C (second compound 0.316 µM, first compound 0.01 µM) 60.9% | viability, T/C [23] 37.7% | viability, T/C [24] 12.8% | viability, T/C (second compound 1 µM, first compound 0.000316 µM) 118% | viability, T/C (second compound 1 µM, first compound 0.001 µM) 136% | viability, T/C (second compound 1 µM, first compound 0.00316 µM) 72.4% | viability, T/C (second compound 1 µM, first compound 0.01 µM) 57.8% | viability, T/C [25] 29.3% | viability, T/C [26] 12.8% | viability, T/C (second compound 3.16 µM, first compound 0.000316 µM) 92.9% | viability, T/C (second compound 3.16 µM, first compound 0.001 µM) 93.2% | viability, T/C (second compound 3.16 µM, first compound 0.00316 µM) 83.4% | viability, T/C (second compound 3.16 µM, first compound 0.01 µM) 56.3% | viability, T/C [27] 21.9% | viability, T/C [28] 12.4% | viability, T/C (second compound 10 µM, first compound 0.000316 µM) 51.1% | viability, T/C (second compound 10 µM, first compound 0.001 µM) 65% | viability, T/C (second compound 10 µM, first compound 0.00316 µM) 51.3% | viability, T/C (second compound 10 µM, first compound 0.01 µM) 35% | viability, T/C [29] 23.1% | viability, T/C [30] 13.6%
16.9 nM: IC50 (second compound 0.316 µM)
3.67 nM: IC50 (second compound 10 µM)
24.6 nM: IC50 (second compound 0.1 µM)

CCc1c2c(nc3ccc(O)cc13)-c1cc3c(c(=O)n1C2)COC(=O)[C@]3(O)CC + CC(CO)NC(=O)c1cc(-c2ccc(Cl)cc2)nn(-c2cnn(C)c2)c1=O
inactive: viability, T/C [31] 42.1% | viability, T/C [32] 37.1% | viability, T/C [1] 18.3% | viability, T/C [33] 34.2% | viability, T/C [34] 30.5% | viability, T/C [5] 13.1% | viability, T/C [35] 33.9% | viability, T/C [36] 21% | viability, T/C [9] 14.2% | viability, T/C [37] 22.4% | viability, T/C [38] 18.9% | viability, T/C [13] 13% | viability, T/C [39] 20.1% | viability, T/C [40] 17.4% | viability, T/C [17] 12.2%
active: viability, T/C [2] 8.94% | viability, T/C [3] 5.8% | viability, T/C [4] 3.72% | viability, T/C [6] 7.93% | viability, T/C [7] 5.5% | viability, T/C [8] 4.2% | viability, T/C [10] 9.54% | viability, T/C [11] 8.88% | viability, T/C [12] 4.3% | viability, T/C [14] 7.97% | viability, T/C [15] 6.24% | viability, T/C [16] 4.5% | viability, T/C [18] 8.79% | viability, T/C [19] 6.32% | viability, T/C [20] 5.7%
< 0.949 nM: IC50 (second compound 0.1 µM) | IC50 (second compound 0.316 µM) | IC50 (second compound 1 µM) | IC50 (second compound 3.16 µM) | IC50 (second compound 10 µM)

CC(C)CC(NC(=O)C(Cc1ccccc1)NC(=O)c1cnccn1)B(O)O (stereo not given) + CC(CO)NC(=O)c1cc(-c2ccc(Cl)cc2)nn(-c2cnn(C)c2)c1=O
active: viability, T/C [32] 6.06% | viability, T/C [1] 3.66% | viability, T/C [2] 2.47% | viability, T/C [3] 2.75% | viability, T/C [4] 1.27% | viability, T/C [34] 6.19% | viability, T/C [5] 4.09% | viability, T/C [6] 1.94% | viability, T/C [7] 2.38% | viability, T/C [8] 1.96% | viability, T/C [36] 5.68% | viability, T/C [9] 2.71% | viability, T/C [10] 2.61% | viability, T/C [11] 1.69% | viability, T/C [12] 1.84% | viability, T/C [38] 6.77% | viability, T/C [13] 2.56% | viability, T/C [14] 1.42% | viability, T/C [15] 1.44% | viability, T/C [16] 1.95% | viability, T/C [40] 6.76% | viability, T/C [17] 2.77% | viability, T/C [18] 1.65% | viability, T/C [19] 1.33% | viability, T/C [20] 1.68%
< 0.949 nM: IC50 (second compound 0.1 µM) | IC50 (second compound 0.316 µM) | IC50 (second compound 1 µM) | IC50 (second compound 3.16 µM) | IC50 (second compound 10 µM)
inactive: viability, T/C [31] 23.1% | viability, T/C [33] 24.2% | viability, T/C [35] 22.5% | viability, T/C [37] 21.1% | viability, T/C [39] 23.2%

COc1ccc([C@@H](O)c2cc(-c3ncnc4cc(N5CCOCC5)ccc34)c(F)cc2Cl)nn1 + Cc1ccccc1N=Nc1ccc(NC(=O)c2ccnn2C)c(C)c1
775 nM: IC50 (second compound 3.16 µM)
816 nM: IC50 (second compound 0.316 µM)
inactive: viability, T/C [21] 96.9% | viability, T/C [22] 102% | viability, T/C (second compound 0.1 µM, first compound 0.316 µM) 76.2% | viability, T/C (second compound 0.1 µM, first compound 1 µM) 62.8% | viability, T/C (second compound 0.1 µM, first compound 3.16 µM) 29.8% | viability, T/C (second compound 0.1 µM, first compound 10 µM) 11.7% | viability, T/C [23] 76.4% | viability, T/C [24] 99.5% | viability, T/C (second compound 0.316 µM, first compound 0.316 µM) 63.1% | viability, T/C (second compound 0.316 µM, first compound 1 µM) 47.3% | viability, T/C (second compound 0.316 µM, first compound 3.16 µM) 23.1% | viability, T/C (second compound 0.316 µM, first compound 10 µM) 11% | viability, T/C [25] 74.1% | viability, T/C [26] 91.7% | viability, T/C (second compound 1 µM, first compound 0.316 µM) 81.6% | viability, T/C (second compound 1 µM, first compound 1 µM) 45.5% | viability, T/C (second compound 1 µM, first compound 3.16 µM) 28.2% | viability, T/C (second compound 1 µM, first compound 10 µM) 12% | viability, T/C [27] 73.8% | viability, T/C [28] 77.2% | viability, T/C (second compound 3.16 µM, first compound 0.316 µM) 58% | viability, T/C (second compound 3.16 µM, first compound 1 µM) 49.4% | viability, T/C (second compound 3.16 µM, first compound 3.16 µM) 25.1% | viability, T/C (second compound 3.16 µM, first compound 10 µM) 12.7% | viability, T/C [29] 63.2% | viability, T/C [30] 45.6% | viability, T/C (second compound 10 µM, first compound 0.316 µM) 58.6% | viability, T/C (second compound 10 µM, first compound 1 µM) 31.9% | viability, T/C (second compound 10 µM, first compound 3.16 µM) 21.3% | viability, T/C (second compound 10 µM, first compound 10 µM) 10%
945 nM: IC50 (second compound 1 µM)
1460 nM: IC50 (second compound 0.1 µM)
356 nM: IC50 (second compound 10 µM)

From PubChem BioAssay AID1918996 (Molecular Pharmacology Branch, DTP, NCI, 2023)
